For orientation: EC50 means the concentration that produces a half-maximal response.

Molecules are shown by their SMILES. Where “and” joins values, the source holds several entries; their conditions need not be identical. Equal entries are not always repeated.

For assay [1], the target named is T1, human GPR119 (Homo sapiens, UniProt Q8TDV5).
T1 sequence (Q8TDV5 1-335): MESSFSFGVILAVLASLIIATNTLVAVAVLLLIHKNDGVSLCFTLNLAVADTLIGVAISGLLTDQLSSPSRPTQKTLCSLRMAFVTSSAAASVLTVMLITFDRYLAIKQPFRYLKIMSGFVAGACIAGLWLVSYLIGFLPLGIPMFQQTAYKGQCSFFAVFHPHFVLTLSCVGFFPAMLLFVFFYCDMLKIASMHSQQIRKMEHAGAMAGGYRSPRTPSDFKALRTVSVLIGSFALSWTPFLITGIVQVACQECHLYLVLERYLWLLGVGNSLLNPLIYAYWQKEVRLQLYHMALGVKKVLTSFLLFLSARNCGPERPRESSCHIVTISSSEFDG
In words: β-Lactamase reporter functional assay (hGPR119 HEK293-CRE beta-lactamase cells). The format is cell-based. Also noted: host or cells: HEK293-CRE beta-lactamase; Emax: dose or concentration left out as unconfirmed. The conditions noted are these: for EC50: hGPR119 HEK293-CRE beta-lactamase cells, 16 h incubation, each line a separate determination, read-out: Human B-lactamase Functional EC50; for Intrinsic Activity (Human B-lactamase) / Emax: percent of maximal activity relative to standard GPR119 agonist at 10 micromolar; for Emax: read-out: Intrinsic Activity (Human B-lactamase). Here is the method: The assay for GPR119 agonists utilizes a cell-based (hGPR119 HEK293-CRE beta-lactamase) reporter construct where agonist activation of human GPR119 is coupled to beta-lactamase production via a cyclic AMP response element (CRE). GPR119 activity is then measured utilizing a FRET-enabled beta-lactamase substrate, CCF4-AM (Live Blazer FRET-B/G Loading kit, Invitrogen cat #K1027). Specifically, hGPR119-HEK-CRE-beta-lactamase cells (Invitrogen 2.5×10^7/mL) were removed from liquid nitrogen storage, and diluted in plating medium (Dulbecco's modified Eagle medium high glucose (DMEM; Gibco Cat # 11995-065), 10% heat inactivated fetal bovine serum (HIFBS; Sigma Cat # F4135), 1×MEM Nonessential amino acids (Gibco Cat # 15630-080), 25 mM HEPES pH 7.0 (Gibco Cat # 15630-080), 200 nM potassium clavulanate (Sigma Cat # P3494). The cell concentration was adjusted using cell plating medium and 50 microL of this cell suspension ([…]) was added into each well of a black, clear bottom, poly-d-lysine coated 384-well plate (Greiner Bio-One cat# 781946) and incubated at 37 degrees Celsius in a humidified environment containing 5% carbon dioxide. After 4 hours the plating medium was removed and replaced with 40 microL of assay medium (Assay medium is plating medium without potassium clavulanate and HIFBS). Varying concentrations of each compound to be tested was then added in a volume of 10 microL (final DMSO ≦0.5%) and the cells were incubated for 16 hours at 37 degrees Celsius in a humidified environment containing 5% carbon dioxide. Plates were removed from the incubator and allowed to equilibrate to room temperature for approximately 15 minutes. 10 microL of 6×CCF4/AM working dye solution (prepared according to instructions in the Live Blazer FRET-B/G Loading kit, Invitrogen cat #K1027) was added per well and incubated at room temperature for 2 hours in the dark. Fluorescence was measured on an EnVision fluorimetric plate reader, excitation 405 nm, emission 460 nm/535 nm. EC50 determinations were made from agonist-response curves analyzed with a curve fitting program using a 4-parameter logistic dose-response equation.

For assay [2], the system named is male Wistar rats. Nature of the assay: Intraperitoneal glucose tolerance test (IPGTT). It counts as in vivo. The conditions noted are these: rat. The text has this:
All in vivo protocols were approved by the Pfizer's Animal Welfare Committee. Naive male Wistar rats (225-250 g body weight on receipt) were obtained from Harlan Laboratories (Indianapolis, Ind.), were pair housed in hanging plastic caging on Sani-chips sawdust bedding, and fed ad libitum on Purina 5001 chow. The rats were housed under a controlled light cycle (light from 6 am to 6 pm) at controlled temperature and humidity conditions. Rats were acclimated to the facility for at least 1 week prior to study.
Rats were assigned (n=8/group) to vehicle or one of three dose groups ([…]) according to body weight on day −0.1 to ensure that each group had equal group mean body weight values. The rats were fasted overnight in clean cages overnight (˜15 hours) prior to the intra-peritoneal glucose tolerance test. Body weights were recorded on the morning of the study (post fasting) for dose volume calculation. Blood samples were collected from all rats prior to dosing with vehicle (0.5% methylcellulose) or test compound via oral gavage (5 mL/kg). Sixty minutes later rats were bled and immediately dose with an IP dose of glucose (2 g/kg). The rats were re-bled at 15, 30, 60 and 120 minutes post-glucose load. Blood samples (˜250 μL/time point) were collected into EDTA tubes with aprotinin/DPPIVi (0.6 TIU/20 μL per mL whole blood), for the determination of plasma glucose, insulin, and total amide GLP-1 concentrations. Blood tubes were inverted several times immediately following collection and placed on ice, then spun at 14,000 rpm in a refrigerated centrifuge for 5 minutes. Plasma samples were analyzed for glucose levels using a Roche 912 clinical chemistry analyzer and plasma insulin concentrations were determined using the Alpco Ultra-Sensitive Insulin Rat Elisa.
The results are presented as mean+/−SEM (standard error of the mean) unless otherwise stated. Statistical evaluation of the data is carried out using one-way analysis of variance (ANOVA) with appropriate post-hoc analysis between vehicle and treatment group. Differences compared to vehicle with a P<0.05 were considered statistically significant using Dunnett's T-test.
IPGTT studies were performed with Example 3, either prepared as described above (dosed as a suspension in 0.5% methylcellulose) or prepared as an amorphous dispersion (25% active) with hydroxyproylmethylcellulose-acetate succinate (dosed as a suspension in 0.5% methylcellulose/0.1% polysorbate 80). […] Statistical significance is based on a comparison to the vehicle group.

Setting [3] is: 20 mg/kg SDD (amorphous dispersion 25% active with HPMC-acetate succinate).

`Cc1c(OC2CCN(C(=O)OC(C)C)CC2)ncnc1N1CCc2cc(S(C)(=O)=O)ccc21` [Example 8, Isopropyl 4-({5-methyl-6-[5-(methylsulfonyl)-2,3-dihydro-1H-indol-1-yl]pyrimidin-4-yl}oxy)piperidine-1-carboxylate]: in assay [1], the EC50 was 43.5 nM and 57.4 nM; the “Intrinsic Activity (Human B-lactamase)” value worked out at 99.2%; the Emax turned out to be 100%.

Turning to `CC(C)OC(=O)N1CCC(Oc2cc(N3CCc4cc(C(=O)N(C)C)ccc43)ncn2)CC1` [Example 9, 4-[6-(5-Dimethylcarbamoyl-2,3-dihydroindol-1-yl)-pyrimidin-4-yloxy]-piperidine-1-carboxylic acid isopropyl ester], in assay [1], the EC50 was 37.3 nM and 32.8 nM; the “Intrinsic Activity (Human B-lactamase)” value worked out at 101%; the Emax worked out at 100%.

For `CC(C)OC(=O)N1C[C@H]2COC[C@@H](C1)[C@H]2Oc1cc(N2CCc3cc(S(C)(=O)=O)ccc32)ncn1` [Example 1, Isopropyl 9-anti-({6-[5-(methylsulfonyl)-2,3-dihydro-1H-indol-1-yl]pyrimidin-4-yl}oxy)-3-oxa-7-azabicyclo[3.3.1]nonane-7-carboxylate], in assay [1], the EC50 was 75.9 nM and 72.3 nM; the “Intrinsic Activity (Human B-lactamase)” value is recorded as 109%; the Emax amounted to 107%.

As for `CC(C)(C)OC(=O)N1CCC(Oc2cc(N3CCc4cc(S(C)(=O)=O)ccc43)ncn2)C(F)C1` (racemic) [Example 15, tert-Butyl 3-fluoro-4-({6-[5-(methylsulfonyl)-2,3-dihydro-1H-indol-1-yl]pyrimidin-4-yl}oxy)piperidine-1-carboxylate], in assay [1], the EC50 was 7.2 nM and 4.09 nM and 2.82 nM; the “Intrinsic Activity (Human B-lactamase)” value is 113% and 112%; the Emax stood at 107%.

Regarding `CC(C)OC(=O)N1CCC(Oc2ncnc(N3CCc4cc(S(C)(=O)=O)ccc43)c2C#N)CC1` [Example 6, Isopropyl 4-({5-cyano-6-[5-(methylsulfonyl)-2,3-dihydro-1H-indol-1-yl]pyrimidin-4-yl}oxy)piperidine-1-carboxylate], in assay [1], the EC50 was 7.8 nM and 6.45 nM; the “Intrinsic Activity (Human B-lactamase)” value was 103%; the Emax stood at 99.9%.

For the molecule `Cc1c(O[C@@H]2[C@@H]3COC[C@H]2CN(C(=O)OC(C)C)C3)ncnc1N1CCc2cc(S(C)(=O)=O)ccc21` [Example 23, Isopropyl (9-syn)-9-({5-methyl-6-[5-(methylsulfonyl)-2,3-dihydro-1H-indol-1-yl]pyrimidin-4-yl}oxy)-3-oxa-7-azabicyclo[3.3.1]nonane-7-carboxylate], the Emax in assay [1] came to 97.9%.

In the case of `Cc1c(OC2CCN(C(=O)OC(C)C)CC2)ncnc1N1CCc2ncccc21` [Example 13, Isopropyl 4-{[6-(2,3-dihydro-1H-pyrrolo[3,2-b]pyridin-1-yl)-5-methylpyrimidin-4-yl]oxy}-piperidine-1-carboxylate], in assay [1], the EC50 was 236 nM and 203 nM; the “Intrinsic Activity (Human B-lactamase)” value amounted to 97.8%; the Emax was 92.6%.

Consider `CC(C)OC(=O)N1CCC(Oc2cc(N3CCc4cc(C#N)ccc43)ncn2)CC1` [Example 10, Isopropyl 4-{[6-(5-cyano-2,3-dihydro-1H-indol-1-yl)pyrimidin-4-yl]oxy}piperidine-1-carboxylate], for which, in assay [1], the EC50 was 46.7 nM and 37.2 nM; the “Intrinsic Activity (Human B-lactamase)” value is reported as 85.8%; the Emax turned out to be 90%.

As to `CC(C)OC(=O)N1CCC(Oc2cc(N3CCc4cc(S(C)(=O)=O)ccc43)ncn2)CC1` [Example 3, Isopropyl 4-({6-[5-(methylsulfonyl)-2,3-dihydro-1H-indol-1-yl]pyrimidin-4-yl}oxy)piperidine-1-carboxylate], in assay [1], the EC50 was 12.6 nM and 29.7 nM and 13.8 nM and 12.3 nM; the “Intrinsic Activity (Human B-lactamase)” value is 102% and 81.8% and 93.4% and 107%. In assay [2] (setting [3]), the “Glucose 0-120 min AUC (percent vehicle response)” value is recorded as “++89 percent vehicle response” and the “Insulin AUC (0-60 min) (percent vehicle response)” value is 118 percent vehicle response. Also, the “Glucose 0-120 min AUC (percent vehicle response)” value in assay [2] (20 mg/kg in 0.5% methylcellulose, IP glucose administered 30 minutes post dose) is “++85 percent vehicle response”.

With `CC(C)OC(=O)N1CCC(Oc2cc(N3CCc4cc(S(=O)(=O)CCO)ccc43)ncn2)CC1` [Example 11, Isopropyl 4-[(6-{5-[(2-hydroxyethyl)sulfonyl]-2,3-dihydro-1H-indol-1-yl}pyrimidin-4-yl)oxy]piperidine-1-carboxylate], in assay [1], the EC50 came out at 40.7 nM and the Emax was 103%.

For `CC(C)OC(=O)N1CCC(Oc2cc(N3CCc4ncccc43)ncn2)CC1` [Example 12, Isopropyl 4-{[6-(2,3-dihydro-1H-pyrrolo[3,2-b]pyridin-1-yl)pyrimidin-4-yl]oxy}piperidine-1-carboxylate], in assay [1], the EC50 is 2100 nM and 2160 nM; the “Intrinsic Activity (Human B-lactamase)” value worked out at 121%; the Emax was found to be 110%.

As to `Cc1c(O[C@H]2CCN(C(=O)OC3(C)CC3)C[C@H]2F)ncnc1N1CCc2ncccc21` [Example 17, 1-Methylcyclopropyl (3R,4S)-4-{[6-(2,3-dihydro-1H-pyrrolo[3,2-b]pyridin-1-yl)-5-methylpyrimidin-4-yl]oxy}-3-fluoropiperidine-1-carboxylate], the “Insulin 0-60 min AUC (percent vehicle response)” value is 126 percent vehicle response in assay [2] (1 mg/kg oral) and “++162 percent vehicle response” in assay [2] (10 mg/kg oral). Besides, the “Total Amide GLP-1 0-120 min AUC (percent vehicle response)” value was found to be 235 percent vehicle response in assay [2] (1 mg/kg oral) and 237 percent vehicle response in assay [2] (10 mg/kg oral). Further, the “Glucose 0-120 min AUC (percent vehicle response)” value in assay [2] (1 mg/kg oral, 60 min before IP glucose 2 g/kg) is 88 percent vehicle response; in assay [2] (10 mg/kg oral, 60 min before IP glucose 2 g/kg) it was “++69 percent vehicle response”.

The record behind these values is patent US20100285145A1, “GPR 119 MODULATORS” (PFIZER INC, priority 2009, published 2010).
